Earlier results, collected in patent publication EP0707853B1, “Muscle relaxant pharmaceutical compositions” (priority 1994, dated 1996).

Conditions: for pI: isoionic point; for pI / pKa: Handbook of Chemistry and Physics, ed. 69, page C 107; for pKa: pKa values for basic groups; for isoionic point (pI): value given in the example text as the pH the solution is brought to

SMILES	pI	pKa	isoionic point (pI)
CSCC[C@H](N)C(=O)O [methionine]	5,91	10,6	
CC(C)[C@H](N)C(=O)O [valine]	6,0	9,72	
N[C@@H](CO)C(=O)O [serine]	5,68	9,15	5.67
O=C(O)[C@@H]1C[C@@H](O)CN1 [hydroxyproline]	5,82	9,73	
O=C(O)[C@@H]1CCCN1 [proline]	6,3	9,87	
C[C@H](N)C(=O)O [alanine]	6,1	9,87	
NCC(=O)O [glycine]	6,06		6.1
